Laboratory results: patent US11413286B2, “Producing astrocytes using small molecules” (CITY OF HOPE, priority 2016, dated 2022)

Test system: induced astrocytes (iA) transfected with R239C AxD mutant GFAP-GFP
Test: GFAP protein aggregates in induced astrocytes transfected with AxD mutant GFAP-GFP
Assay type: cell-based, mouse
Conditions: 100 μM ceftriaxone for 48 hr vs vehicle
Experimental: Transfection into induced astrocytes. Induced astrocytes (iA) were seeded at 1×10^5 cells per well in 12-well plates and incubated overnight. Then 2 μg plasmid of human wild type (WT) GFAP-GFP or AxD mutant GFAP-GFP with the R239C mutation (Bachetti et al., 2008) was transfected into iA using Lipofectamine® 2000 (Invitrogen). Forty eight hr after transfection, cells were assayed by immunostaining. For drug treatment, 24 hr after transfection, cells were treated with vehicle control or 100 μM ceftriaxone for 48 hr, followed by immunostaining.
AxD is a neurological disease with astrocyte dysfunction and is caused by genetic mutation of the GFAP gene (Messing et al., 2012). Expression of AxD mutant GFAP induces the expression of αB-crystallin, a small heat shock protein, and the formation of protein aggregates containing GFAP and αB-crystallin in astrocytes (Messing et al., 2012). The compound-induced astrocytes were tested to see if they could be used to model AxD. Plasmid expressing GFP fusion of the wild type (WT) or AxD mutant GFAP containing the R239C mutation, a hotspot mutation for AxD (Hagemann et al., 2006), were transfected into VCSTO-induced astrocytes. […] VCSTO-induced astrocytes transfected with the AxD mutant GFAP were treated with ceftriaxone.

| SMILES | GFAP protein aggregates in iA with AxD mutant GFAP |
| --- | --- |
| CO/N=C(\C(=O)N[C@@H]1C(=O)N2C(C(=O)O)=C(CSc3nc(=O)c(=O)[nH]n3C)CS[C@H]12)c1csc(N)n1 [ceftriaxone] | Substantial elimination of GFAP protein aggregates |

Test system: Oct4-luc
Test: Oct4-luc reporter induction by OAC compounds
Assay type: cell-based
Design: key to Oct4-luc Activity: Active: Compounds that induce Oct4-luc 1.8-fold or more were classified as being “active”; Inactive: molecules that induce Oct4-luc less than 1.8-fold were indicated as being “inactive”
Conditions: not given

| SMILES | Oct4-luc Activity | Oct4-luc fold Induction [fold] |
| --- | --- | --- |
| O=C(Nc1ccc2[nH]ncc2c1)c1ccc(F)cc1 [Compound C7] | Active | 2.2 |
| Cc1nc2cc(NC(=O)c3ccc([N+](=O)[O-])cc3)ccc2[nH]1 [Compound C32] | Inactive | 1.3 |
| CCOc1ccc(C(=O)Nc2ccc3[nH]ncc3c2)cc1OCC [Compound C30] | Inactive | 1 |
| O=C(Nc1ccc2[nH]ncc2c1)c1ccc(Cl)cc1Cl [Compound C12] | Active | 3.6 |
| O=C(Nc1ccc2[nH]ncc2c1)c1cccc(Br)c1 [Compound C20] | Inactive | 1.48 |
| O=C(Nc1ccc2[nH]ncc2c1)c1cccc(C(F)(F)F)c1 [Compound C21] | Inactive | 1.48 |
| COc1ccc(C(=O)Nc2ccc3[nH]ccc3c2)cc1 [Compound C4] | Active | 5.46 |
| CCOc1cccc(C(=O)Nc2ccc3[nH]ncc3c2)c1 [Compound C14] | Active | 2.67 |
| CCc1ccc(C(=O)Nc2ccc3[nH]ncc3c2)cc1 [Compound C10] | Active | 4.51 |
| O=C(Nc1ccc2[nH]ncc2c1)c1ccccc1Br [Compound C24] | Inactive | 1.46 |
| O=C(Nc1ccc2[nH]nnc2c1)c1cccc(Cl)c1 [Compound C31] | Inactive | 1 |
| COc1cccc(C(=O)Nc2ccc3[nH]ncc3c2)c1OC [Compound C27] | Inactive | 1.37 |
| O=C(Nc1cc2cc[nH]c2cn1)c1ccccc1 [Compound C1] | Active | 4.72 |
| O=C(Nc1ccc2[nH]ncc2c1)c1ccccc1 [Compound C8] | Active | 1.89 |
| CC(C)c1ccc(C(=O)Nc2ccc3[nH]ncc3c2)cc1 [Compound C11] | Active | 3.78 |
| COc1ccccc1C(=O)Nc1ccc2[nH]ncc2c1 [Compound C25] | Inactive | 1.5 |

| SMILES | Oct4-luc Activity | Oct4-luc fold Induction [fold] |
| --- | --- | --- |
| O=C(Nc1ccc2[nH]ncc2c1)c1ccccc1Cl [Compound C23] | Inactive | 1.72 |
| COc1ccc(C(=O)Nc2ccc3[nH]ncc3c2)cc1 [Compound C6] | Active | 3.18 |
| O=C(Nc1ccc2[nH]ccc2c1)c1ccccc1 [Compound C2] | Active | 4.15 |
| COc1ccc(C(=O)Nc2ccc3[nH]ncc3c2)c(OC)c1 [Compound C28] | Inactive | 1.42 |
| O=C(Nc1ccc2[nH]ncc2c1)c1ccccc1F [Compound C22] | Inactive | 1.5 |
| COc1ccc(C(=O)Nc2ccc3[nH]ncc3c2)cc1OC [Compound C29] | Inactive | 1.13 |
| O=C(Nc1ccc2[nH]ncc2c1)c1cccc(Cl)c1 [Compound C19] | Inactive | 1.65 |
| Cc1ccc(C(=O)Nc2ccc3[nH]ncc3c2)cc1C [Compound C13] | Active | 2.78 |
| O=C(Nc1ccc2[nH]ccc2c1)c1ccc2nonc2c1 [Compound C5] | Active | 2.87 |
| CCOc1ccc(C(=O)Nc2ccc3[nH]ncc3c2)cc1 [Compound C9] | Active | 7.22 |
| COc1cccc(C(=O)Nc2ccc3[nH]ncc3c2)c1 [Compound C15] | Active | 1.93 |
| Cc1ccc(C(=O)Nc2ccc3[nH]cc(C#N)c3c2)cc1 [Compound C17] | Inactive | 1.1 |
| O=C(Nc1ccc2[nH]ccc2c1)c1ccc(F)cc1 [Compound C3] | Active | 3.84 |
| O=C(Nc1ccc2[nH]ncc2c1)c1cccc(F)c1 [Compound C18] | Inactive | 1.27 |
| CCOc1ccccc1C(=O)Nc1ccc2[nH]ncc2c1 [Compound C26] | Inactive | 1.22 |
| CN1CCC(c2c[nH]c3ccc(NC(=O)c4ccc(F)cc4)cc23)CC1 [Compound C16] | Inactive | 1 |

Test system: reprogramming efficiency
Test: Enhancement of reprogramming efficiency by OAC compounds
Assay type: cell-based
Conditions: not given

| SMILES | Enhance reprogramming efficiency |
| --- | --- |
| O=C(Nc1cc2cc[nH]c2cn1)c1ccccc1 [Compound C1] | YES |
| O=C(Nc1ccc2[nH]ccc2c1)c1ccccc1 [Compound C2] | YES |
| O=C(Nc1ccc2[nH]ccc2c1)c1ccc(F)cc1 [Compound C3] | YES |

Test system: MEFs
Test: Direct reprogramming of MEFs into astrocytes, GFAP/S100β immunostaining
Assay type: cell-based, mouse
Conditions: MEFs treated for 25 days, GFAP immunostaining
Experimental: Cell culture. MEFs and TTFs were derived from E13.5 embryos of Oct4-GFP transgenic (OG2) mice (Szabo et al., 2002), wild type or GFAP-GFP transgenic mice (Jackson Laboratory) (Zhuo et al., 1997). These cells were cultured in MEF medium containing DMEM, 10% FBS, 0.1 mM nonessential amino acids, and 2 mM L-glutamine. Mouse primary astrocytes were isolated from P1-2 pups following published protocol ([…] et al., 2013) and cultured in DMEM containing 10% FBS. Direct reprogramming mouse fibroblasts into astrocytes. MEFs were plated on 6-well or 12-well plates at a cell density of 3×10^3 cells/cm^2. Cells were cultured in MEF medium for 24 hr, then changed to mouse induced astrocyte medium (iAM) containing knock-out DMEM with 10% knock-out serum replacer, 10% FBS, 2 mM L-glutamine, 0.1 mM NEAA, 0.1 mM β-mercaptoethanol, and 100 ng/ml FGF. Cells were treated with compounds, including […] valproaic acid (VPA) (Stemgent), 3 μM CHIR99021(D&C chemicals), 10 μM SB-431542 (D&C chemicals), 10 μM Tranylcypromine (Stemgent), and 1 μM OAC1(Li et al., 2012) for 10 days, replated onto Matrigel-coated plates (BD Biosciences) and continued with compound treatment for another 15 days. Cells were then switched to mouse astrocyte medium (AM) containing DMEM with 10% heat-inactivated FBS. Immunocytochemistry. […]

| SMILES | induction of GFAP-positive cells from MEFs |
| --- | --- |
| NC(=O)c1ccc(-c2nc(-c3ccc4c(c3)OCO4)c(-c3ccccn3)[nH]2)cc1 [S, 4-[4-(1,3-benzodioxol-5-yl)-5-pyridin-2-yl-1H-imidazol-2-yl]benzamide] | sufficient to induce GFAP-positive cells |
| Cc1cccc(-c2n[nH]cc2-c2ccc3ncccc3n2)n1 [Compound 6, 2-[5-(6-methylpyridin-2-yl)-1H-pyrazol-4-yl]-1,5-naphthyridine] | able to induce GFAP-positive cells |

Test system: MEF transduced with AxD GFAP-GFP
Test: GFAP protein aggregates in MEF transduced with AxD mutant GFAP-GFP
Assay type: cell-based, mouse
Conditions: ceftriaxone vs vehicle
Experimental: FIGS. 12A-12E illustrate recapitulating GFAP protein aggregates in VCSTO-induced astrocytes (iA) transfected with an AxD mutant GFAP. […] The transfected cells are indicated by GFP. Nuclei Dapi staining (blue) is included in the merged images. Scale bar, 10 μm. […] Scale bar, 10 μm. […] The percentage of iA that contained the GFAP-GFP aggregates was reduced upon ceftriaxone treatment. n=400 to 500 cells. […] MEF transduced with the AxD GFAP-GFP were treated with ceftriaxone (+Cef) or vehicle control (−Cef). The percentage of MEF that contain the GFAP-GFP aggregates remained the same in the absence or presence of ceftriaxone treatment. n=600 to 900 cells. […] Error bars are sd of the mean, **p<0.01 by Student's t-test.
AxD is a neurological disease with astrocyte dysfunction and is caused by genetic mutation of the GFAP gene (Messing et al., 2012). Expression of AxD mutant GFAP induces the expression of αB-crystallin, a small heat shock protein, and the formation of protein aggregates containing GFAP and αB-crystallin in astrocytes (Messing et al., 2012). The compound-induced astrocytes were tested to see if they could be used to model AxD. Plasmid expressing GFP fusion of the wild type (WT) or AxD mutant GFAP containing the R239C mutation, a hotspot mutation for AxD (Hagemann et al., 2006), were transfected into VCSTO-induced astrocytes. […]

| SMILES | GFAP protein aggregates in MEF with AxD mutant GFAP |
| --- | --- |
| CO/N=C(\C(=O)N[C@@H]1C(=O)N2C(C(=O)O)=C(CSc3nc(=O)c(=O)[nH]n3C)CS[C@H]12)c1csc(N)n1 [ceftriaxone] | not responsive |
